For data set [1], the system named is Deoxynucleoside Triphosphate (dNTP) Pools in Uninfected Vero Cells. The data set is described as follows: Deoxynucleoside triphosphate (dNTP) pools in uninfected (mock-infected) Vero cells. Format: cell-based. Particulars: Table 7, uninfected Vero cells, treatment 7 hours, ± S.E. The procedure: Vero cells were treated with MMdCyd, H4 dUrd and MMdCyd+H4 dUrd. The cells were then assayed for the presence of deoxynucleoside triphosphates. Untreated Vero cells were also assayed for the presence of deoxynucleoside triphosphates, to provide a control.
^a Cells were mock infected for one hour. Different treatments were
^b Values are means of at least two assays of triplicate cell
(§1) Vero cells and HSV-infected Vero cells were treated with dGUO and dGUO and H4 dUrd. The cells were then assayed for the presence of deoxynucleoside triphosphates. Untreated Vero cells were also assayed for the presence of deoxynucleoside triphophate to provide a control.
Vero cells were treated with N-methyl-MMdCyd. The cells were then assayed for dNTP pools.

Data set [2] deals with HSV-1, KOS. The data set is described as follows: HSV-1 KOS infectivity in Vero cells prior to washing of drugs. Format: cell-based, Herpes simplex virus type 1. Particulars: at less than 2120 μM (500 μg/ml). On the procedure:
Vero cells were infected with HSV-1, KOS strain and then treated with MMdCyd in various quantities, and also with MMdCyd in various quantities together with a constant amount of H4 dUrd. The virus infectivity was observed and the results are given in Table 5 and are shown graphically in FIG. 3.
^a Virus infectivity was scored using following parameters: rounding
of cells, plaque formation and loss of monolayer structure.
^b Concentration of H4 dUrd used was 530 μM (125 μg/ml).

The nature of data set [3]: in vitro. Particulars: monkey, vero cells.
Experimental: The survival and viability of Vero cells grown in the presence of 2'-deoxyguanosine, H4 dUrd and deoxyguanosine+H4 dUrd was determined.
The test system of data set [4] is Deoxynucleoside Triphosphate (dNTP) Pools in Vero Cells Infected with Herpes Simplex Virus Type 1. The data set is described as follows: Deoxynucleoside triphosphate (dNTP) pools in HSV-1 infected Vero cells. Format: cell-based. On the procedure:
Example 9 was repeated, except that the Vero cells subjected to the treatment had all been infected with HSV-1 KOS strain prior to the treatment.
^a Cells were infected with 10 PFU/cell of HSV1 KOS strain for one
hour. Treatments were given for seven hours.
^a Cells were infected with 10 PFU/cell of HSV1, KOS strain after
^b H4 dUrd in MEM was added immediately after adsorption and
^c H4 dUrd in MEM was added immediately after adsorption and
as §1
^c Cells were infected with 10 PFU/cell of HSV1 strain KOS for one

Data set [5] deals with HSV-1, KOS. The data set is described as follows: HSV-1 KOS infectivity (virus yield) in Vero cells after removal of drugs. Format: cell-based, Herpes simplex virus type 1. Particulars: up to 2120 μM (highest concentration tested). The procedure: Vero cells were infected with HSV-1, KOS strain and then samples of the infected cells were treated with MMdCyd in various quantities and with MMdCyd in various quantities together with 530 μM of H4 dUrd. Cells were washed twice with 0.4 ml of MEM to remove residual drug, overlaid with growth medium and incubated for 72 h. The virus was harvested by two cycles of freezing and thawing. The culture fluid from each treatment was pooled and assayed for virus yield.
^b H4 dUrd 530 μM (125 μg/ml) was added along with MMdCyd.

Data set [6] has as its target T1, HSV-1 DNA Polymerase (Human herpesvirus 1, UniProt P04293). The data set is described as follows: In vitro DNA synthesis by HSV-1 DNA polymerase ([3H]dAMP incorporation). The class given is biochemical, Herpes simplex virus type 1. On the procedure: The relative in vitro DNA synthesis by HSV-1 DNA Polymerase using dCTP or MMdCTP as the rate limiting substrate was determined. The synthesis was followed by assaying an incorporation of tritium labelled dAMP.
+ unlabelled dNTP concentration 10 μM
++ Radio labelled [^3 H]dAMP conc 0.2 μM
*One hundred percent activity represents 27355 cpm of [^3 H]dAMP
(§2) The number of pmoles of [^3 H] dAMP incorporated into control samples (`O`MMdCTP) was subtracted from pmoles of test samples. Other nucleotides,dATP, dTTP and dGTP were in excess (10 μm). Each assay was performed in triplicate.
(§3) ^+ unlabeled dNTP concentration (10 μM).
(§4) ^++ 0.2 μM of [^3 H]dATP was used in each assay.

The target in data set [7] is T1, HSV-1 DNA Polymerase. The experiment in a line: Kinetic analysis / inhibition of HSV-1 DNA polymerase. Format: biochemical. On the procedure: The inhibition of HSV-1 and human DNA polymerase alpha by MMdCTP was studied and the results shown graphically in FIG. 16. Assay conditions were specific for each enzyme and each assay was performed in triplicate.
For data set [8], the target named is T2, human DNA polymerase alpha (Homo sapiens, UniProt P09884).
T2 sequence (P09884 1-1462): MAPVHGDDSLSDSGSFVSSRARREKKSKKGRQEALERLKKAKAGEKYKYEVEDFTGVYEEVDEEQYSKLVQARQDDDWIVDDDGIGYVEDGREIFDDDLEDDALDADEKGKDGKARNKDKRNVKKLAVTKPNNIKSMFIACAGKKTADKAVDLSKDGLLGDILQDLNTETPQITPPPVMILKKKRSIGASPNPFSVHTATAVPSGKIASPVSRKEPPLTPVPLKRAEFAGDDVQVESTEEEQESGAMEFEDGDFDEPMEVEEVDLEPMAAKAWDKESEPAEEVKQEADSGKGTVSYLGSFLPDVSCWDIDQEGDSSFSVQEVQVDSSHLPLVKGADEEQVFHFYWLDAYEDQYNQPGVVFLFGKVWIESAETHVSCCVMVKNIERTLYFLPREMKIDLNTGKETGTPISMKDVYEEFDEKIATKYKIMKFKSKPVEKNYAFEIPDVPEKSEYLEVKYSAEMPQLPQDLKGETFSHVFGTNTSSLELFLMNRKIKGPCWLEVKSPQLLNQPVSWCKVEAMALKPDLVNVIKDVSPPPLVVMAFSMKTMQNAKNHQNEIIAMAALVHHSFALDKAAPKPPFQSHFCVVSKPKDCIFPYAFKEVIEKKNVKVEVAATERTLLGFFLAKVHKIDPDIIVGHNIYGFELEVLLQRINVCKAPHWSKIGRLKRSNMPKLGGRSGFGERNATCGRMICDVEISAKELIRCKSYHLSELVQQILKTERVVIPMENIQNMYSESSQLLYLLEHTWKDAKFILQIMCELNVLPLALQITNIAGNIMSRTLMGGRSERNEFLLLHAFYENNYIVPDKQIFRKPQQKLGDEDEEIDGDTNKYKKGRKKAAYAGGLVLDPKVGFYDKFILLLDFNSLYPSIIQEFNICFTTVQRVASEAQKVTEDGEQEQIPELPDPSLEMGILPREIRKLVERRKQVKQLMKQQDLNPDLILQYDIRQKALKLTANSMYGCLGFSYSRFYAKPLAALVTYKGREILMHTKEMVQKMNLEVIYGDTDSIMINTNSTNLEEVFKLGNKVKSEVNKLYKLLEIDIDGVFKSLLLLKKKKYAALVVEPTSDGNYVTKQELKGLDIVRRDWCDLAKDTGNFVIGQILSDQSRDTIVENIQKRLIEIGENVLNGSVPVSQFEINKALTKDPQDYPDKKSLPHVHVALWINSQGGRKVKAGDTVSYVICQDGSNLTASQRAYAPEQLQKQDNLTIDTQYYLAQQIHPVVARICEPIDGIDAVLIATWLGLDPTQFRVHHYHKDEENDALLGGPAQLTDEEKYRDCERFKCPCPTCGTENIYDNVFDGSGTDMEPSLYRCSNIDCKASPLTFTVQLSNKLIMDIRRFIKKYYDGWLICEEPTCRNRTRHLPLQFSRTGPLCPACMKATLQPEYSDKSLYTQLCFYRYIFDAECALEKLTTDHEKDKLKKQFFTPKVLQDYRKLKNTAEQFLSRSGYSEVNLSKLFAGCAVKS
The data set is described as follows: In vitro DNA synthesis by human DNA polymerase alpha ([3H]dAMP incorporation). Format: biochemical. Particulars: human DNA polymerase alpha, FIG. 14. On the procedure:
A comparison of in vitro DNA synthesis by viral and cellular DNA polymerases with MMdCTP as an alternative substrate. The results are shown graphically in FIG. 14 and compare HSV-1 DNA polymerase and human DNA polymerase alpha activity.
as §2, §3, §4

[9] abbreviates: Table 8, HSV-1 KOS infected Vero cells, 10 PFU/cell, treatment 7 hours, ± S.E.
Where [10] appears, read: Table 9, HSV-1 KOS infected, H4 dUrd pre-incubated 2 hours then removed, fresh MEM or MMdCyd.

Consider two compounds from patent publication US4990499A, “Anti-herpes simplex virus activity of 5-alkoxymethyl-2'-deoxycytidimes and their 5-monophosphates” (priority 1989, dated 1991).

Entries after “also recorded” stand apart in the source; their conditions may differ.

The term viability denotes a read-out of living cells in per cent, often relative to untreated cells. Low readings indicate a greater loss of cells, high ones better survival. As usually defined, the Ki is a measure of affinity in units of concentration, obtained from inhibition or displacement.

T1 sequence (P04293 whole entry): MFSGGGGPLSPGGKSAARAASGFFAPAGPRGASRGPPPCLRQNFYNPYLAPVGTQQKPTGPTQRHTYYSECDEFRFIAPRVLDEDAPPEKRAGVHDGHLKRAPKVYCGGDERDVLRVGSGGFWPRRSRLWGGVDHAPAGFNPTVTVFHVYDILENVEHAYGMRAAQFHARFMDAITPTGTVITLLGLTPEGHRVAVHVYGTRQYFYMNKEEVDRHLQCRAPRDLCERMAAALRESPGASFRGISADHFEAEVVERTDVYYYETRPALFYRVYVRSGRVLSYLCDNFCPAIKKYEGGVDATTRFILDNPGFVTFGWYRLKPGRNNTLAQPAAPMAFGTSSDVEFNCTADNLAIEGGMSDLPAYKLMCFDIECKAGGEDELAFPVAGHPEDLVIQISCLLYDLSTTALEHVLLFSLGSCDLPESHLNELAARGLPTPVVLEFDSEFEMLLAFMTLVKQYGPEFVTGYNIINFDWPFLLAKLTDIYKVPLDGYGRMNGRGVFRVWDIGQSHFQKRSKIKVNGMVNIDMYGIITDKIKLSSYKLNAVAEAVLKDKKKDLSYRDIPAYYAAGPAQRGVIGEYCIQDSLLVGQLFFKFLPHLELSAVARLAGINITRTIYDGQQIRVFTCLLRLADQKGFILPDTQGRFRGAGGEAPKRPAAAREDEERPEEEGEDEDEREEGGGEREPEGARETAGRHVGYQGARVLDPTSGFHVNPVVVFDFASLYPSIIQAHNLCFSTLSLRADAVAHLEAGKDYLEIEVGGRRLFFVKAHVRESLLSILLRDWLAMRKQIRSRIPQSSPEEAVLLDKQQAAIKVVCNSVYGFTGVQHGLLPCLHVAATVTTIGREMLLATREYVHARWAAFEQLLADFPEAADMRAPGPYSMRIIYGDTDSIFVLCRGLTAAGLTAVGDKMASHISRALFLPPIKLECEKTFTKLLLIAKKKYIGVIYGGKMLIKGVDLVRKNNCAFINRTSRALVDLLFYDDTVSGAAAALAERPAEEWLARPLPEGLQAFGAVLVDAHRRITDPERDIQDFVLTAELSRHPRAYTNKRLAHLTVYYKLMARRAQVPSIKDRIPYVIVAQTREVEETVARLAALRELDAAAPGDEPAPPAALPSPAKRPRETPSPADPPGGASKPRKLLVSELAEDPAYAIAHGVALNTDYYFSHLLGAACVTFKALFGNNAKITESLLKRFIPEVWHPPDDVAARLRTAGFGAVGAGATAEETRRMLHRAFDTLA

Turning to `O=C1NC(O)CCN1[C@H]1C[C@H](O)[C@@H](CO)O1` (stereo partly drawn) [H4 dUrd, tetrahydro-2'-deoxyuridine], in data set [1], the dATP pool was 17.6 ± 1.28 .rho.moles/10^6 cells, the dCTP pool is 30.8 ± 1.20 .rho.moles/10^6 cells, the dGTP pool is reported as 32 ± 1.3 .rho.moles/10^6 cells and the dTTP pool is recorded as 27.5 ± 1.25 .rho.moles/10^6 cells. In addition, the “antiviral activity of H4 dUrd alone” value in data set [2] is on record as “did not exhibit antiviral activity”. The viability at 1000 µM in data set [3] came out at 100%. In addition, in data set [4] (setting [9]), the dATP pool is recorded as 94.7 ± 2.06 .rho.moles/10^6 cells, the dCTP pool was 326 ± 12.6 .rho.moles/10^6 cells, the dGTP pool is 101.3 ± 2.28 .rho.moles/10^6 cells and the dTTP pool is 0.5 ± 0.34 .rho.moles/10^6 cells. Besides, in data set [4] (setting [10]), the dATP pool was 119.4 ± 3.1 .rho.moles/10^6 cells, the dCTP pool is listed as 312 ± 10.1 .rho.moles/10^6 cells, the dGTP pool is 141 ± 2.6 .rho.moles/10^6 cells and the dTTP pool was 2 ± 0.41 .rho.moles/10^6 cells. In addition, the “antiviral activity of H4 dUrd” value in data set [5] is given as “did not exhibit antiviral activity; also recorded: no antiviral activity”.

Take `COCc1cn([C@H]2C[C@H](O)[C@@H](COP(=O)(O)OP(=O)(O)OP(=O)(O)O)O2)c(=O)nc1N` [MMdCTP, 5-methoxymethyl-2'-deoxycytidine triphosphate]: the “utilization as alternative substrate ([^3 H] dAMP incorporation)” value in data set [6] (HSV-1 DNA polymerase, FIG. 14) is given as “readily utilized”; in data set [8], “little used”. Further, in data set [6] (HSV-1 induced DNA polymerase), the “preference as substrate versus dCTP” value was “preferred as a substrate to dCTP”. Moreover, in data set [7], the affinity corresponds to a Ki of 380 nM. Further, the “inhibition of HSV-1 versus human DNA polymerase alpha” value in data set [7] (FIG. 16, HSV-1 compared with human DNA polymerase alpha) is recorded as “clear difference in effect”. Also, the Km/Ki in data set [7] (Km of dCTP / Ki of MMdCTP) is on record as 0.4.
